Measurements reported in BindingDB's records for doi:10.1016/S0960-894X(01)80104-9 (1994).

Target: not listed separately
Experiment: In vitro thromboxane receptor antagonist against U-46619 induced aggregation of washed human platelets

| IC50 [nM] | SMILES |
| --- | --- |
| 795 | O=C(O)CC/C=C\CC[C@H]1[C@@H](OCc2ccc(-c3ccccc3)cc2)CO[C@H]1c1cccnc1 [(Z)-7-[(2R,3R,4R)-4-(Biphenyl-4-ylmethoxy)-2-pyridin-3-yl-tetrahydro-furan-3-yl]-hept-4-enoic acid] |
| 27 | O=C(O)CC/C=C\CC[C@H]1[C@@H](OCc2ccc(-c3ccccc3)cc2)CO[C@@H]1c1cccnc1 [(Z)-7-[(2S,3R,4R)-4-(Biphenyl-4-ylmethoxy)-2-pyridin-3-yl-tetrahydro-furan-3-yl]-hept-4-enoic acid] |

The remaining lines, values behind:

| SMILES | IC50 [nM] |
| --- | --- |
| O=C(O)CCCCO/N=C(/c1cccnc1)c1cccc(C(F)(F)F)c1 [5-[Pyridin-3-yl-(3-trifluoromethyl-phenyl)-methyleneaminooxy]-pentanoic acid] | 1280 |
| O=C(O)CC/C=C\CC[C@@H]1[C@@H](c2cccnc2)OC[C@H]1OCc1ccc(-c2ccccc2)cc1 [(Z)-7-[(2S,3R,4S)-4-(Biphenyl-4-ylmethoxy)-2-pyridin-3-yl-tetrahydro-furan-3-yl]-hept-4-enoic acid] | 88 |
| O=C(O)CC/C=C\CC[C@H]1[C@H](OCc2ccc(-c3ccccc3)cc2)CO[C@H]1c1cccnc1 [(Z)-7-[(2R,3R,4S)-4-(Biphenyl-4-ylmethoxy)-2-pyridin-3-yl-tetrahydro-furan-3-yl]-hept-4-enoic acid] | 820 |

Target: T1, Thromboxane A2 receptor (Homo sapiens, UniProt P21731)
T1 sequence (P21731 whole entry): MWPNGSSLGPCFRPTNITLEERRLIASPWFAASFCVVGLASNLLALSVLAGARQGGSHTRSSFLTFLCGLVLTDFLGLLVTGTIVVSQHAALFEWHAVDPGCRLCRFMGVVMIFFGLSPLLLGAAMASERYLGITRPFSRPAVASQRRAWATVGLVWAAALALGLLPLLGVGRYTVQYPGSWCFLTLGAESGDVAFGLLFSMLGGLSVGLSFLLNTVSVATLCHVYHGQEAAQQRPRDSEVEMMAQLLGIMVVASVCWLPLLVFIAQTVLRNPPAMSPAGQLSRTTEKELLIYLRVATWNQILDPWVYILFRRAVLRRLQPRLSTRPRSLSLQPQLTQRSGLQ
Experiment: In vitro thromboxane receptor antagonist against U-46619 induced aggregation of washed human platelets

| SMILES | IC50 [nM] |
| --- | --- |
| O=C(O)CC/C=C\CC[C@H]1[C@@H](OCc2ccc(-c3ccccc3)cc2)CO[C@@H]1c1cccnc1 [(Z)-7-[(2S,3R,4R)-4-(Biphenyl-4-ylmethoxy)-2-pyridin-3-yl-tetrahydro-furan-3-yl]-hept-4-enoic acid] | 28 |
